Results published in patent publication US10828310B2, “Reducing the risk of cardiovascular events” (Bayer Pharma Aktiengesellschaft, priority 2018, dated 2020).
Entries after “also recorded” stand apart in the source; their conditions may differ.

Legend:
[1] = tested on: patients with stable cardiovascular disease; details: in vivo; cited from earlier work
[2] = tested on: patients with stable peripheral arterial disease; details: in vivo; cited from earlier work
[3] = tested on: patients with stable atherosclerotic vascular disease (coronary artery disease, peripheral arterial disease, or both); test: COMPASS trial, efficacy outcomes; type: in vivo, human; details: for participants reported to have atrial fibrillation who had a stroke: 26 of the 392 participants with atrial fibrillation; for primary outcome event of cardiovascular death, stroke, or myocardial infarction, number of patients / primary outcome event of cardiovascular death, stroke, or myocardial infarction, percentage of patients: rivaroxaban alone 5 mg twice daily, mean follow-up 23 months; for primary outcome / major adverse cardiovascular events compared with aspirin alone (in words): compared with aspirin alone 100 mg once daily
Method: Patients were eligible if they provided written informed consent and met the criteria for coronary artery disease, peripheral arterial disease, or both. Patients with coronary artery disease who were younger than 65 years of age were also required to have documentation of atherosclerosis involving at least two vascular beds or to have at least two additional risk factors (current smoking, diabetes mellitus, an estimated glomerular filtration rate (“GFR”)<60 ml per minute, heart failure, or nonlacunar ischemic stroke≥1 month earlier). Exclusion criteria were a high bleeding risk; a recent stroke or previous hemorrhagic or lacunar stroke; severe heart failure; advanced stable kidney disease (estimated GFR<15 ml per minute); the use of dual antiplatelet therapy, anticoagulation, or other antithrombotic therapy; and noncardiovascular conditions deemed by the investigator to be associated with a poor prognosis.
Eligible participants (except those who underwent randomization 4 to 14 days after coronary-artery bypass graft (“CABG”) surgery) entered a run-in phase during which they received a rivaroxaban-matched placebo twice daily and aspirin at a dose of 100 mg once daily. The purpose of the run-in phase was to identify participants who were unwilling or unable to adhere to the trial regimen, who had adverse events, or who were otherwise not suitable for randomization. Patients who underwent randomization 4 to 14 days after CABG surgery were not required to participate in the run-in phase because thrombotic graft occlusion is most common during the first few weeks after surgery and we sought to enroll such patients promptly.
(§1) Study aspirin was enteric-coated.
(§2) Three secondary efficacy outcomes were specified: the composite of ischemic stroke, myocardial infarction, acute limb ischemia, or death from coronary heart disease; the composite of ischemic stroke, myocardial infarction, acute limb ischemia, or cardiovascular death; and death from any cause. Tertiary efficacy outcomes included individual components of the primary and secondary outcomes, as well as hospitalization for cardiovascular causes, revascularization, limb amputation, stent thrombosis, angina, heart failure, venous thromboembolism, resuscitated cardiac arrest, and a new diagnosis of cancer. The net-clinical-benefit outcome was the composite of cardiovascular death, stroke, myocardial infarction, fatal bleeding, or symptomatic bleeding into a critical organ.
All the outcome events in all randomly assigned patients that occurred between randomization and the date of stopping the trial were included in the analysis, according to the intention-to-treat principle. An early stop of both antithrombotic treatment groups for efficacy had not been anticipated, and therefore a strategy for formal testing of secondary outcomes at the interim analysis was not prespecified.
(§3) All reported P values are two-sided.

[4] = tested on: patients with stable atherosclerotic vascular disease (coronary artery disease, peripheral arterial disease, or both); test: COMPASS trial, net-clinical-benefit outcome; type: in vivo, human
Description: “Safe” for the methods disclosed herein may also be measured by the net clinical benefit of the inventive method or product compared to administration of aspirin alone. The net clinical benefit outcome consists of cardiovascular death, myocardial infarction, stroke, and fatal or critical organ bleeding.
Because the products and methods of the present invention involve medications that cause the desired reduction in the risk of myocardial infarction, stroke, or cardiovascular death yet also cause undesired bleeding, the “net clinical benefit” of the therapy is important to consider. The “net clinical benefit” composite is a positive benefit risk ratio that was derived using severe bleeding events (intracranial bleeding, fatal bleeding, and critical organ bleeding) as a component of the composite. In clinical studies, the risk of the composite net clinical benefit outcome of cardiovascular death, stroke, myocardial infarction, fatal bleeding or symptomatic bleeding into a critical organ was lower with twice-daily 2.5 mg rivaroxaban combined with once daily 100 mg aspirin (4.7%) than with aspirin alone (100 mg once daily) (5.9%), hazard ratio 0.80.
as §1, §2, §3

[5] = tested on: patients with stable cardiovascular disease receiving single or dual antiplatelet therapy; details: in vivo; cited from earlier work
[6] = tested on: patients with stable atherosclerotic vascular disease (coronary artery disease, peripheral arterial disease, or both); details: human, in vivo, 23 months
Description: Adverse events that impact whether the inventive combinations and combination therapy are safe are adverse bleeding events that include, for example, major bleeding, minor bleeding, intracranial bleeding, and symptomatic bleeding into a critical organ. “Major bleeding” as used herein is a modification of the International Society on Thrombosis and Haemostasis (ISTH) criteria for major bleeding and includes fatal bleeding, symptomatic bleeding into a critical organ, bleeding into a surgical site requiring reoperation, and bleeding that led to hospitalization (including presentation to an acute care facility without an overnight stay). Unlike the ISTH criteria, all bleeding that led to presentation to an acute care facility or hospitalization is considered as major.
The COMPASS trial, conducted at 602 centers in 33 countries, is a double-blind, double-dummy, randomized trial using a 3-by-2 partial factorial design and involving patients with a history of stable atherosclerotic vascular disease. […]

[7] = tested on: patients with a recent acute coronary syndrome; details: background of single or dual antiplatelet therapy, cited from earlier work
[8] = rivaroxaban 2.5 mg twice daily + aspirin 100 mg once daily, aspirin alone 100 mg once daily

COC(=O)[C@H](c1ccccc1Cl)N1CCc2sccc2C1 [clopidogrel]
risk of cardiovascular death or death from any cause vs aspirin [1]: no significant difference | risk of major adverse cardiovascular events vs aspirin [1]: lower risk

CCCSc1nc(N[C@@H]2C[C@H]2c2ccc(F)c(F)c2)c2nnn([C@@H]3C[C@H](OCCO)[C@@H](O)[C@H]3O)c2n1 [ticagrelor]
rate of major adverse cardiovascular events vs clopidogrel [2]: did not result in a significantly lower rate

CC(=O)Oc1ccccc1C(=O)O [aspirin alone, acetylsalicylic acid]
participants reported to have atrial fibrillation who had a stroke [3]: 11 participants | deaths (death from any cause), number [3, 8]: 378 deaths | deaths (death from any cause), percentage [3, 8]: 4.1% | secondary composite outcome of ischemic stroke, myocardial infarction, acute limb ischemia, or death from coronary heart disease, number of patients [3, 8]: 450 patients | secondary composite outcome of ischemic stroke, myocardial infarction, acute limb ischemia, or death from coronary heart disease, percentage of patients [3, 8]: 4.9% | secondary outcome of ischemic stroke, myocardial infarction, acute limb ischemia, or cardiovascular death, number of patients [3, 8]: 516 patients | secondary outcome of ischemic stroke, myocardial infarction, acute limb ischemia, or cardiovascular death, percentage of patients [3, 8]: 5.7% | primary outcome event of cardiovascular death, stroke, or myocardial infarction, number of patients [3, 8]: 496 patients | primary outcome event of cardiovascular death, stroke, or myocardial infarction, percentage of patients [3, 8]: 5.4% | composite net-clinical-benefit outcome of cardiovascular death, stroke, myocardial infarction, fatal bleeding, or symptomatic bleeding into a critical organ, number of patients [4, 8]: 534 patients | composite net-clinical-benefit outcome of cardiovascular death, stroke, myocardial infarction, fatal bleeding, or symptomatic bleeding into a critical organ, percentage of patients [4, 8]: 5.9%

CCOC(=O)N[C@@H]1CC[C@@H]2[C@@H](C1)C[C@H]1C(=O)O[C@H](C)[C@H]1[C@H]2/C=C/c1ccc(-c2cccc(F)c2)cn1 [vorapaxar]
mortality vs placebo [5]: no significant between-group difference | rate of major adverse cardiovascular events vs placebo [5]: lower rate | rate of moderate or severe bleeding vs placebo [5]: higher rate

O=C(NC[C@H]1CN(c2ccc(N3CCOCC3=O)cc2)C(=O)O1)c1ccc(Cl)s1 [rivaroxaban alone, 5-chloro-N-({(5S)-2-oxo-3-[4-(3-oxo-4-morpholinyl)phenyl]-1,3-oxazolidin-5-yl}methyl)-2-thiophenecarboxamide]
participants reported to have atrial fibrillation who had a stroke [3]: 8 participants | primary outcome / major adverse cardiovascular events compared with aspirin alone (in words) [3]: did not show a significant difference | primary outcome / major adverse cardiovascular events compared with aspirin alone (in words) ([3]; listed as Rivaroxaban): not associated with a significant reduction | primary outcome / major adverse cardiovascular events compared with aspirin alone (in words) ([3]; listed as Rivaroxaban alone): did not result in a significantly lower risk | hazard ratio for the primary outcome ([3]; compared with aspirin alone, stratified Cox model): 0.90 | primary outcome event of cardiovascular death, stroke, or myocardial infarction, number of patients [3, 8]: 448 patients | primary outcome event of cardiovascular death, stroke, or myocardial infarction, percentage of patients [3, 8]: 4.9% | hazard ratio, major bleeding events (modified ISTH criteria) [6]: 1.51 | net-clinical-benefit outcome compared with aspirin alone (in words) ([4]; rivaroxaban alone 5 mg twice daily vs aspirin alone): not significantly lower; also recorded: did not show a significant difference | rate of major adverse cardiovascular events vs placebo ([7]; 2.5 mg twice daily or 5 mg twice daily): lower rate | mortality vs placebo ([7]; 2.5 mg twice daily): lower mortality
